Tests used:
E. feacalis = test: Minimum inhibitory concentration (MIC) in vitro, agar dilution method; assay type: cell-based; settings: hydrate
Outline: (§1)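 MIC50, MIC90 and MIC range were compiled from per-strain MICs obtained by the agar dilution method recommended by CLSI/NCCLS, using clinically isolated strains from Sichuan and Beijing.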

E. feacium = test: as above; assay type: cell-based; settings: hydrate
Outline: as §1

S. epidermidis MRSE = test: as above; assay type: cell-based; settings: hydrate
Outline: as §1

S. epidermidis MSSE = test: as above; assay type: cell-based; settings: hydrate
Outline: as §1

[1] = test system: Staphylococcus aureus MRSA; test: as above; assay type: cell-based; settings: hydrate
Outline: as §1

[2] = test system: Staphylococcus aureus MSSA; test: as above; assay type: cell-based; settings: hydrate
Outline: as §1

Staphylococcus aureus = test: Minimum inhibitory concentration (MIC) in vitro, agar dilution method, quality control strain; assay type: cell-based; settings: strain S. AT C C25923 (Table 7 No. 1); hydrate
Outline: as §1

[3] = Solubility in different solvents according to Chinese Pharmacopeia (2005 edition); assay type: physicochemical; settings: for Result: at the given solute:solvent ratio
Description: The solubility of the (S)—[N-3-(3′-fluoro-4′-(4″-phenylpiperazinyl))phenyl-2-oxo-5-oxazolelidinyl]methylacetamide hydrates was tested with different solvents, and the test results are shown in Tables 15-19. The solubility was measured according to Chinese Pharmacopeia (2005 edition).

[4] = E. feacalis (5 strains), clinically isolated
[5] = E. feacium (5 strains), clinically isolated
[6] = S. ep MRSE (10 strains), clinically isolated
[7] = S. ep MSSE (10 strains), clinically isolated
[8] = S. MRSA (10 strains), clinically isolated
[9] = S. MSSA (11 strains), clinically isolated

SMILES: CC(=O)NC[C@H]1CN(c2ccc(N3CCN(c4ccccc4)CC3)c(F)c2)C(=O)O1 [2/7 hydrate, (S)—[N-3-(3′-fluoro-4′-(4″-phenylpiperazinyl))phenyl-2-oxo-5-oxazolidinyl]methyl acetamide 2/7 hydrate]
- MIC50 (E. feacalis; [4]): 0.25 µg/mL
- MIC90 (E. feacalis; [4]): 0.5 µg/mL
- MICrange (E. feacalis; [4]): 0.125 to 0.5 µg/mL
- MIC (E. feacalis; strain Efa 116 (Table 8 No. 16)): 0.5 µg/mL
- MIC (E. feacalis; strain Efa 907 (Table 8 No. 19)): 0.25 µg/mL
- MIC (E. feacalis; strain Efa 3006 (Table 8 No. 18)): 0.25 µg/mL
- MIC (E. feacalis; strain Efa 33748 (Table 8 No. 17)): 0.5 µg/mL
- MIC50 (E. feacium; [5]): 1 µg/mL
- MIC90 (E. feacium; [5]): 1 µg/mL
- MICrange (E. feacium; [5]): 0.5 to 1 µg/mL
- MIC (E. feacium; strain Efm 98 (Table 8 No. 21)): 0.5 µg/mL
- MIC (E. feacium; strain Efm 171 (Table 8 No. 25)): 1 µg/mL
- MIC (E. feacium; strain Efm 197 (Table 8 No. 22)): 0.5 µg/mL
- MIC (E. feacium; strain Efm N3 (Table 8 No. 23)): 1 µg/mL
- MIC (E. feacium; strain Efm N4 (Table 8 No. 24)): 1 µg/mL
- MIC50 (S. epidermidis MRSE; [6]): 0.5 µg/mL
- MIC90 (S. epidermidis MRSE; [6]): 0.5 µg/mL
- MICrange (S. epidermidis MRSE; [6]): 0.25 to 0.5 µg/mL
- MIC (S. epidermidis MRSE; strain S. ep MRSE4 (Table 8 No. 9)): 0.25 µg/mL
- MIC (S. epidermidis MRSE; strain S. ep MRSE20 (Table 8 No. 6)): 0.5 µg/mL
- MIC (S. epidermidis MRSE; strain S. ep MRSE87 (Table 8 No. 13)): 0.5 µg/mL
- MIC (S. epidermidis MRSE; strain S. ep MRSE90 (Table 8 No. 10)): 0.5 µg/mL
- MIC (S. epidermidis MRSE; strain S. ep MRSE101 (Table 8 No. 7)): 0.25 µg/mL
- MIC (S. epidermidis MRSE; strain S. ep MRSE105 (Table 8 No. 11)): 0.5 µg/mL
- MIC (S. epidermidis MRSE; strain S. ep MRSE140 (Table 8 No. 14)): 0.5 µg/mL
- MIC (S. epidermidis MRSE; strain S. ep MRSE142 (Table 8 No. 12)): 0.5 µg/mL
- MIC (S. epidermidis MRSE; strain S. ep MRSE210 (Table 8 No. 15)): 0.5 µg/mL
- MIC (S. epidermidis MRSE; strain S. ep MRSE211 (Table 8 No. 8)): 0.5 µg/mL
- MIC50 (S. epidermidis MSSE; [7]): 0.5 µg/mL
- MIC90 (S. epidermidis MSSE; [7]): 0.5 µg/mL
- MICrange (S. epidermidis MSSE; [7]): 0.25 to 0.5 µg/mL
- MIC (S. epidermidis MSSE; strain S. ep MSSE87 (Table 7 No. 23)): 0.125 µg/mL
- MIC (S. epidermidis MSSE; strain S. ep MSSE88 (Table 8 No. 5)): 0.5 µg/mL
- MIC (S. epidermidis MSSE; strain S. ep MSSE113 (Table 7 No. 24)): 0.25 µg/mL
- MIC (S. epidermidis MSSE; strain S. ep MSSE116 (Table 7 No. 25)): 0.25 µg/mL
- MIC (S. epidermidis MSSE; strain S. ep MSSE118 (Table 8 No. 2)): 0.5 µg/mL
- MIC (S. epidermidis MSSE; strain S. ep MSSE119 (Table 7 No. 27)): 0.25 µg/mL
- MIC (S. epidermidis MSSE; strain S. ep MSSE137 (Table 8 No. 4)): 0.5 µg/mL
- MIC (S. epidermidis MSSE; strain S. ep MSSE140 (Table 8 No. 3)): 0.5 µg/mL
- MIC (S. epidermidis MSSE; strain S. ep MSSE142 (Table 7 No. 26)): 0.5 µg/mL
- MIC (S. epidermidis MSSE; strain S. ep MSSE153 (Table 8 No. 1)): 0.5 µg/mL
- MIC50 [1, 8]: 0.5 µg/mL
- MIC90 [1, 8]: 0.5 µg/mL
- MICrange [1, 8]: 0.5 to 1 µg/mL
- MIC ([1]; strain S. MRSA 29 (Table 7 No. 15)): 0.5 µg/mL
- MIC ([1]; strain S. MRSA 101 (Table 7 No. 14)): 1 µg/mL
- MIC ([1]; strain S. MRSA 201 (Table 7 No. 13)): 0.5 µg/mL
- MIC ([1]; strain S. MRSA B27 (Table 7 No. 21)): 0.5 µg/mL
- MIC ([1]; strain S. MRSA B105 (Table 7 No. 17)): 0.5 µg/mL
- MIC ([1]; strain S. MRSA B143 (Table 7 No. 19)): 0.5 µg/mL
- MIC ([1]; strain S. MRSA B151 (Table 7 No. 20)): 0.5 µg/mL
- MIC ([1]; strain S. MRSA B164 (Table 7 No. 16)): 0.5 µg/mL
- MIC ([1]; strain S. MRSA B199 (Table 7 No. 22)): 0.5 µg/mL
- MIC ([1]; strain S. MRSA B617 (Table 7 No. 18)): 0.5 µg/mL
- MIC50 [2, 9]: 0.5 µg/mL
- MIC90 [2, 9]: 0.5 µg/mL
- MICrange [2, 9]: 0.5 to 1 µg/mL
- MIC ([2]; strain S. MSSA 123 (Table 7 No. 3)): 0.5 µg/mL
- MIC ([2]; strain S. MSSA 187 (Table 7 No. 7)): 0.5 µg/mL
- MIC ([2]; strain S. MSSA 195 (Table 7 No. 6)): 1 µg/mL
- MIC ([2]; strain S. MSSA 195 (Table 7 No. 12)): 0.5 µg/mL
- MIC ([2]; strain S. MSSA 201 (Table 7 No. 11)): 0.5 µg/mL
- MIC ([2]; strain S. MSSA 232 (Table 7 No. 2)): 0.5 µg/mL
- MIC ([2]; strain S. MSSA 275 (Table 7 No. 10)): 0.5 µg/mL
- MIC ([2]; strain S. MSSA 466 (Table 7 No. 8)): 0.5 µg/mL
- MIC ([2]; strain S. MSSA 519 (Table 7 No. 9)): 0.5 µg/mL
- MIC ([2]; strain S. MSSA 520 (Table 7 No. 4)): 0.25 µg/mL
- MIC ([2]; strain S. MSSA 580 (Table 7 No. 5)): 0.25 µg/mL
- MIC (Staphylococcus aureus): 0.5 µg/mL
- Solubility compared with the anhydride ([3]; different solvents): sometimes more soluble than the anhydride
- Result ([3]; solvent 0.1N Hydrochloric acid): Dissolved
- Result ([3]; solvent 0.1N Sodium hydroxide): Insoluble
- Result ([3]; solvent Acetonitrile): Dissolved
- Result ([3]; solvent Ethanol): Dissolved
- Result ([3]; solvent Methanol): Dissolved
- Result ([3]; solvent Water, hydrate): Dissolved

From patent US8916567B2, “Certain crystalline hydrates, pharmaceutical compositions thereof and methods for preparation and use thereof” (Universal Technology Alliance, Inc., priority 2009, dated 2014)
